Patent publication US8313766B2, “Oral antidepressant formulation with reduced excipient load” (priority 2010, dated 2012)
Values after ≈ are worked out from the molar mass of the structure shown.

Legend:
[1] = CX-157 solubility in candidate solvents, test tube method; type: physicochemical; settings: organic solvent or mixture, thermodynamic from solid, CX-157 Form A
Protocol: Ethanol, acetone and methylene chloride were selected and tested as candidate solvents. CX-157 solubility in the solvent was performed using a test tube method. A specific amount of CX-157 (Form A: disclosed in U.S. Pat. Pub. No. 2008/0009542 herein incorporated by reference in it entirety) was added into 1 mL test solvent and the sample was agitated vigorously by a Beadbeater (BB). If CX-157 was completely soluble in 1 mL of test solvent, additional CX-157 was added until excess solid was present. The solubility (mg/mL) of CX-157 was calculated by the amount (mass) of CX-157 added to the test solvent (1 mL). Acetone had the highest solubility of the solvents tested with a solubility of from about 60 mg/mL to about 80 mg/mL at room temperature.

[2] = Solubility of CX-157 in water (descriptive statement); type: physicochemical
[3] = human plasma, oral dose of 200 mg in a capsule with food; cited from earlier work

Row | Compound | solubility ([1]; solvent acetone, at room temperature) [mg/mL] | solubility ([1]; solvent ethanol, at 60° C.) [mg/mL] | solubility ([1]; solvent methylene chloride, at room temperature) [mg/mL] | solubility in water [2] | Tmax [3] [h] | time after dosing at which non-detectable levels observed [3] [h]
1 | O=S1(=O)c2ccc(F)cc2Oc2cc(OCC(F)(F)F)ccc21 [CX-157, 3-fluoro-7-(2,2,2-trifluoroethoxy)phenoxathiin 10,10-dioxide] | 60 to 80 (≈ 172 to 230 mM) | < 10 | < 20 | only sparing solubility | – | –
2 | NCCc1ccc(O)cc1 [tyramine] | – | – | – | – | ≤ 1.25 | 3 to 4
